The source of these data is ChEMBL document CHEMBL4270672, “Synthesis and Biological Evaluation of Fused Tricyclic Heterocycle Piperazine (Piperidine) Derivatives As Potential Multireceptor Atypical Antipsychotics” (J Med Chem, 2018).

Data set [1] can be described thus: Acute toxicity in po dosed Kunming mouse assessed as mortality measured after 24 hrs post dose. The class given is organism-based. The following applies: in vivo.
The target of data set [2] is 5-hydroxytryptamine receptor 1A (Homo sapiens) (UniProt P08908). Briefly: Agonist activity at serotonin 5-HT1A receptor (unknown origin) expressed in HEK293 cells assessed as induction of calcium flux at 10 uM after 60 mins by calcium 4-dye based FLIPR assay relative to control. The class given is functional, cell-based. For orientation: Calcium assays in cells follow changes in intracellular calcium, usually with a dye or a luminescent sensor.
Sequence of 5-hydroxytryptamine receptor 1A (Homo sapiens) (P08908 whole entry): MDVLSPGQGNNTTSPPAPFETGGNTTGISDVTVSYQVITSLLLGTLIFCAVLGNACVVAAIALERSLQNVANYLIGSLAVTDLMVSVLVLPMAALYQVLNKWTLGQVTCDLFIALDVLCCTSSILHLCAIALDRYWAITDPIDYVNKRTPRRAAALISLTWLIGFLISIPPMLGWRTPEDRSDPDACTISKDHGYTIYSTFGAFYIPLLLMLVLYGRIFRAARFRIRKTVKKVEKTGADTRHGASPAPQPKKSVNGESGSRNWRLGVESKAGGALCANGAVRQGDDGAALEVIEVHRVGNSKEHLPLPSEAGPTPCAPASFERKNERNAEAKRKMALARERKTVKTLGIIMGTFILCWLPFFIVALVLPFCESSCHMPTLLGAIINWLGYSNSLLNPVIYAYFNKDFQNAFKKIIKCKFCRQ

Data set [3] concerns the target T1, 5-hydroxytryptamine receptor 2A (Homo sapiens, UniProt P28223). The data set is described as follows: Agonist activity at serotonin 5-HT2A receptor (unknown origin) expressed in HEK293 cells assessed as induction of calcium flux at 10 uM after 60 mins by calcium 4-dye based FLIPR assay relative to control. It counts as functional, cell-based.
Data set [4] deals with T2, 5-hydroxytryptamine receptor 6 (Homo sapiens, UniProt P50406). Briefly: Agonist activity at serotonin 5-HT6 receptor (unknown origin) expressed in HEK293 cells assessed as induction of calcium flux at 10 uM after 60 mins by calcium 4-dye based FLIPR assay relative to control. The class given is functional, cell-based.
T2 sequence (P50406 whole entry): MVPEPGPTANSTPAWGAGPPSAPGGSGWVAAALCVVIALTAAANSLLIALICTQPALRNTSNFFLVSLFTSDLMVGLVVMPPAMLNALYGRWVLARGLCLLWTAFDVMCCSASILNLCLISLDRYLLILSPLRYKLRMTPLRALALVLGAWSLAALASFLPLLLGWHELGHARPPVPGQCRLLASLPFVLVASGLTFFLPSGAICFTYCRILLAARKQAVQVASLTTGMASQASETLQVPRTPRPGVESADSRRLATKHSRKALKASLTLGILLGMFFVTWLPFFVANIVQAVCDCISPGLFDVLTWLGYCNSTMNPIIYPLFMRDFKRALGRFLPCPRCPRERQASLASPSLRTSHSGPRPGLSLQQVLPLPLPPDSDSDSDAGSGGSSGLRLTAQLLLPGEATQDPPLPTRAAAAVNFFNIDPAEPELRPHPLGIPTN
The subject of data set [5] is Mus musculus. Briefly: Induction of catalepsy in po dosed Kunming mouse measured after 60 secs. It counts as organism-based. The settings on record: in vivo, 1 min.
Data set [6] can be described thus: AUC (0 to t) in Sprague-Dawley rat at 1 mg/kg, iv by LC-MS/MS analysis. It counts as ADME, organism-based. The following applies: in vivo.
Data set [7] is described as follows: Oral bioavailability in Sprague-Dawley rat at 10 mg/kg by LC-MS/MS analysis. The class given is ADME, organism-based. The settings on record: in vivo.
Data set [8] concerns the target Histamine H3 receptor (Rattus norvegicus, UniProt Q9QYN8). Briefly: Displacement of [3H] methylhistamine from histamine H3 receptor in rat cerebral cotex homogenates after 30 mins by liquid scintillation counting. In general terms: Displacement assays read how much labelled ligand stays bound in the presence of the test substance.
Data set [9] addresses Sigma non-opioid intracellular receptor 1 (Cavia porcellus, UniProt Q60492). The data set is described as follows: Displacement of [3H]-(+)-pentazocine from sigma1 receptor in guinea pig brain membranes after 180 mins by liquid scintillation counting. The class given is cell membranes, Membrane.
Data set [10] has as its target Glutamate NMDA receptor. Briefly: Displacement of [3H] glycine from NMDA receptor in rat hippocampal membrane homogenates after 30 mins by liquid scintillation counting. The class given is cell membranes.
Data set [11] deals with T3, 5-hydroxytryptamine receptor 1A (Rattus norvegicus, UniProt P19327).
T3 sequence (P19327 whole entry): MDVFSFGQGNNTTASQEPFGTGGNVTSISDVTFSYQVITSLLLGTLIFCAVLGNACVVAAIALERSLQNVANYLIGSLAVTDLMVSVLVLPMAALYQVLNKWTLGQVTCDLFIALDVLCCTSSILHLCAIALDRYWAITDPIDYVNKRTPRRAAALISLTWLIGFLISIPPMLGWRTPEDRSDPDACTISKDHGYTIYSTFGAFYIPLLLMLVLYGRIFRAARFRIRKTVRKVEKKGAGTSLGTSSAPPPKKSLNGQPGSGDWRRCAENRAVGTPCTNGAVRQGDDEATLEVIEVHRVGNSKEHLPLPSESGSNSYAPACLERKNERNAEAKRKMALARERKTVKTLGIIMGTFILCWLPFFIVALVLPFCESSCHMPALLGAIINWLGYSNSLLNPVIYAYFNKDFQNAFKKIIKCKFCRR

Data set [12] addresses T4, 5-hydroxytryptamine receptor 2C (Rattus norvegicus, UniProt P08909).
T4 sequence (P08909 whole entry): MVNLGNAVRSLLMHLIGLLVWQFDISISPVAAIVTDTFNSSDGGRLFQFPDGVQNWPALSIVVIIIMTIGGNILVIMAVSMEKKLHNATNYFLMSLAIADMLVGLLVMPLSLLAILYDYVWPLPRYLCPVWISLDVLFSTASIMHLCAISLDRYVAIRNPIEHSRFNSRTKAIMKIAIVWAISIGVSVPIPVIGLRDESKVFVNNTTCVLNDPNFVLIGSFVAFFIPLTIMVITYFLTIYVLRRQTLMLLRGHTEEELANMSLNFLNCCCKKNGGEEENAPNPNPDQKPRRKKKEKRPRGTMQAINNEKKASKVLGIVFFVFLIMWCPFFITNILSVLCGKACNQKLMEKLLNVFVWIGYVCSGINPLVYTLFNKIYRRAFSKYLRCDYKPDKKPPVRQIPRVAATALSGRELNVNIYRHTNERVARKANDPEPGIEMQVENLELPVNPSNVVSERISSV

Data set [13] deals with Voltage-gated inwardly rectifying potassium channel KCNH2 (Homo sapiens, UniProt Q12809).
Sequence of Voltage-gated inwardly rectifying potassium channel KCNH2 (Q12809 whole entry): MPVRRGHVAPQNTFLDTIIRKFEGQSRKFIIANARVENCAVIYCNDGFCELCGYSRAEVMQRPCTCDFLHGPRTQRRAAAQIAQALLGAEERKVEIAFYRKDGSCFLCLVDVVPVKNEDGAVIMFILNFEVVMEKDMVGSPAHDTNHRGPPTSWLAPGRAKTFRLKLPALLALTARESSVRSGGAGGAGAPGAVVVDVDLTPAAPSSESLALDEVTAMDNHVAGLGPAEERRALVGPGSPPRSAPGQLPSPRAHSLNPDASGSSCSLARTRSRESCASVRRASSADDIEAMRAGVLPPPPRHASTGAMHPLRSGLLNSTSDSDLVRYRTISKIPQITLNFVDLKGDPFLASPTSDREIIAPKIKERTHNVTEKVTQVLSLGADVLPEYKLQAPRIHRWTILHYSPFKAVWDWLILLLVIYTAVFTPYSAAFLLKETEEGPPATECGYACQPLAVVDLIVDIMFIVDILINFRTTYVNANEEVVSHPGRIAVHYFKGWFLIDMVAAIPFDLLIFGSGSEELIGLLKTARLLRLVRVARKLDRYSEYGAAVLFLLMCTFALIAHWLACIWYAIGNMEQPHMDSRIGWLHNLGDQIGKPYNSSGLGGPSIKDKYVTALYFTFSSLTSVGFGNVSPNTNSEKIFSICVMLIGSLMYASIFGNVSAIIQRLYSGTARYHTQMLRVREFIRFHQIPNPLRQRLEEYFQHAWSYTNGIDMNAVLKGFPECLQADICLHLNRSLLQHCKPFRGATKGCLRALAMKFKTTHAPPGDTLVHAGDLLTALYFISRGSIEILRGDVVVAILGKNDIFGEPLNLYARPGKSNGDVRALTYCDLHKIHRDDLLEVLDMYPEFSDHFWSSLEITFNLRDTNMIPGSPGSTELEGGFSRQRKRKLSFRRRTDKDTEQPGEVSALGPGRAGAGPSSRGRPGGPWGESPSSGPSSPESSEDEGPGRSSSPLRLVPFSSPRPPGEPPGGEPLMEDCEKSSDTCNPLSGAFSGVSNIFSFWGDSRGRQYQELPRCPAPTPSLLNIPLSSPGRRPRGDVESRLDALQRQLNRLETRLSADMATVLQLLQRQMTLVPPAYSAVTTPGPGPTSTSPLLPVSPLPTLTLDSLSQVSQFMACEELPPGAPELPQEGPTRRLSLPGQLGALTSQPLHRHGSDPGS
Description: Inhibition of human ERG expressed in HEK293 cells at -50 mV holding potential by patch clamp assay
Data set [14] concerns the target T1, 5-hydroxytryptamine receptor 2A.
The target in data set [15] is T2, 5-hydroxytryptamine receptor 6. Briefly: biochemical.
The test system of data set [16] is Mus musculus. The following applies: Kunming.
Description: Antipsychotic activity in po dosed Kunming mouse assessed as reduction in apomorphine-induced climbing pretreated for 30 mins followed by apomorphine injection measured at 10 to 30 mins post dose

T1 sequence (P28223 whole entry): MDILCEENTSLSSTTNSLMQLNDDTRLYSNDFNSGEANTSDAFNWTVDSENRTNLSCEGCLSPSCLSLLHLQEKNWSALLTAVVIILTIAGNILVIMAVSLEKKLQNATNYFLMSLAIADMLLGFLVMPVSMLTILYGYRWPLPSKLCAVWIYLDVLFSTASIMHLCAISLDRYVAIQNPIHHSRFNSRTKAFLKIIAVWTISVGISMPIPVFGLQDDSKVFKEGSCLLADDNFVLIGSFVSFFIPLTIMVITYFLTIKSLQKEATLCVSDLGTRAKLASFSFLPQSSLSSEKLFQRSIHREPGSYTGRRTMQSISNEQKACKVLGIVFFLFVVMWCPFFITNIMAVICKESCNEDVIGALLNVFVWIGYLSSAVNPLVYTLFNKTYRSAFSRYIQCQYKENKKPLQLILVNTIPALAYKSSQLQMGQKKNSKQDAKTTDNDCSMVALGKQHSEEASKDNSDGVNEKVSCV
Sequence of Histamine H3 receptor (Q9QYN8 whole entry): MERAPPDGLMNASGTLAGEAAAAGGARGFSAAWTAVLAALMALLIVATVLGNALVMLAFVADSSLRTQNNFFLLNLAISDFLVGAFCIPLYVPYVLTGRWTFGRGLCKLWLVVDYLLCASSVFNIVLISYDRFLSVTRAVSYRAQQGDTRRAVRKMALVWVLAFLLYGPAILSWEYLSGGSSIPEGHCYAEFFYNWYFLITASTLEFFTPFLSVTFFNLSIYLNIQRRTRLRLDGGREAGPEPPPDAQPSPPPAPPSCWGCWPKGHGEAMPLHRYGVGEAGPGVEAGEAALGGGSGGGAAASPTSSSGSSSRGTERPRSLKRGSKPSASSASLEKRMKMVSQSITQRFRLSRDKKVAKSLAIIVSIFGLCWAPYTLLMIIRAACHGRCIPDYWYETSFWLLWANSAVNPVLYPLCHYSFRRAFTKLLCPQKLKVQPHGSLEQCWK
Sequence of Sigma non-opioid intracellular receptor 1 (Q60492 whole entry): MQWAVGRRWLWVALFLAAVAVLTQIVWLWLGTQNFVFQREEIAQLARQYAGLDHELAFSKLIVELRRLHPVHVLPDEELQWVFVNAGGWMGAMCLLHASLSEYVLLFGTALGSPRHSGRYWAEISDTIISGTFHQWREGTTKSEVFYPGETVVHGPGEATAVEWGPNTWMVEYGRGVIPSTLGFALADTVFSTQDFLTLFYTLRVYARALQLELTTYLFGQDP

A word on the LD50: it is the dose expected to kill half of the subjects tested. As usually defined, the ED50 is the dose that gives a 50% effect, or the effect in half of the subjects. Broadly, the AUC(0-t) is the area under the concentration-time curve up to a stated or last time point. High values mean more exposure, low ones less exposure. As usually defined, the bioavailability is dose-corrected exposure relative to a reference, in per cent. A higher bioavailability goes with much systemic uptake. Broadly, the Ki is a dissociation constant, usually derived from enzyme kinetics or from competition with a known ligand. Low readings indicate higher affinity, high ones lower affinity. A word on the IC50: it is the concentration that gives 50% inhibition. Read a high IC50 as a need for much substance. `O=C(CCCCN1CCC(c2noc3cc(F)ccc23)CC1)c1cc2c3c(c1)CCN3C(=O)CC2`: in [1], the LD50 at 24 h was greater than 2000 mg/kg. Further, the Activity in data set [2] was 8.6%; in data set [3], 0.6%; in data set [4], 6%; in [16], “Dose-dependent effect”. The same compound showed an ED50 in [5] of 78.62 mg/kg. The compound also yielded an AUC(0-t) in [6] of 3140 ng·h/mL. For the same compound, the bioavailability in data set [7] was determined as 58.8%. Moreover, the Ki is greater than 1000 nM in data set [8]; greater than 1000 nM in data set [9]; greater than 1000 nM in [10]; 8.6 nM in data set [11]; 616 nM in data set [12]; 5.55 nM in data set [15]. In addition, the IC50 in data set [13] worked out at 2910 nM; in data set [14], 257 nM.
